Test results published in patent US20230099344A1, “COMPOUNDS AND METHODS FOR THE TARGETED DEGRADATION OF IRAK-4” (Arvinas Operations, Inc., priority 2021, published 2023).

Tests used:
Format in all cases: cell-based
IL6 [1] = experiment: LPS stimulated IL6 inhibition assay in PBMC; settings: Homo sapiens, PBMC, 24 h, human PBMCs, LPS stimulation, compound overnight, IL6 by MSD after 24 hrs; for Dmax: read-out: LPS Stim IL6 inhibition Dmax; for IC50: read-out: LPS stim IL6 inhibition IC50
Method in brief: (§1)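 Primary human PBMCs plated at 2.0×10^6 cells/mL are incubated with compound overnight. Stimulation follows using the donor's EC50 concentration of agonist. MSD detects secreted IL6/IL8 at 24 hrs.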

IRAK-4 = biological target: T1, IRAK-4 (Homo sapiens, UniProt Q9NWZ3); experiment: IRAK-4 ELISA, PBMC degradation; design: endogenous in cells; host or cells: PBMC; settings: treated overnight
T1 sequence (Q9NWZ3 1-460): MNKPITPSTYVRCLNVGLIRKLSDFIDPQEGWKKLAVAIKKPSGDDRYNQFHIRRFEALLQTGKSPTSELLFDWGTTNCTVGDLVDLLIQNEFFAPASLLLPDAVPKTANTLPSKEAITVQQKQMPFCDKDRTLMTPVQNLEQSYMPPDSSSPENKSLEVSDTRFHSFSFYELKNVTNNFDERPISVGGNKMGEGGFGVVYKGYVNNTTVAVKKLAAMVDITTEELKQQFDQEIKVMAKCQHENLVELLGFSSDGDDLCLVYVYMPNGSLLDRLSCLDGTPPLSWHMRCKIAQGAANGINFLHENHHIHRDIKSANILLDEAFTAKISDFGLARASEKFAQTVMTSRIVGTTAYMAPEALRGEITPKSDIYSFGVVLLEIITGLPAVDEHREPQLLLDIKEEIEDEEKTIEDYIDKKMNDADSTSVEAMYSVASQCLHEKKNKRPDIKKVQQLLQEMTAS
Method in brief: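 OCI-Ly10 cells (1×10^6/ml) or PBMC (2×10^6/ml) treated with compound on the day of seeding and incubated overnight. IRAK-4 protein remaining in cell lysates quantified by sandwich ELISA.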

IL6 [2] = experiment: R848 stimulated IL6 inhibition assay in PBMC; settings: PBMC, human PBMCs, R848 stimulation, compound overnight, IL6 by MSD after 24 hrs; for Dmax: Homo sapiens, 24 h, read-out: R848 stim IL6 inhibition Dmax; for IC50: read-out: R848 stim IL6 inhibition IC50
Method in brief: as §1

| SMILES | IC50 (IL6 [1]) [µM] | DC50 (IRAK-4) [µM] | Dmax (IRAK-4) [%] | PBMC DC90 (IRAK-4) | IC50 (IL6 [2]) [µM] | Dmax (IL6 [1]) [%] | Dmax (IL6 [2]) [%] |
| --- | --- | --- | --- | --- | --- | --- | --- |
| O=C1CCC(N2C(=O)c3ccc(N4CC(F)(CN5CCC(n6cc7cc(NC(=O)c8cnn9cccnc89)c(OCC8CC8)cc7n6)CC5)C4)c(F)c3C2=O)C(=O)N1 (centres unmarked) [Example 262] | 0.05 to 0.1 | 0.001 to 0.005 | 70 to 80 | A (A represents a DC90 value <10.0 nM) | 0.01 to 0.05 | < 70 | ≥ 90 |
| O=C1CCC(N2C(=O)c3ccc(N4CCCC5(CN(CCN6CCC(n7cc8cc(NC(=O)c9cnn%10cccnc9%10)c(OCC9CC9)cc8n7)CC6)C5)C4)cc3C2=O)C(=O)N1 (centres unmarked) [Example 248] | 0.01 to 0.05 | 0.001 to 0.005 | < 70 | A (A represents a DC90 value <10.0 nM) | 0.01 to 0.05 | < 70 | ≥ 90 |
| O=C1CCC(N2C(=O)c3ccc(N4CC[C@H](O[C@H]5CC[C@@H](n6cc7cc(NC(=O)c8cnn9cccnc89)c(OCC8CC8)cc7n6)CC5)C4)cc3C2=O)C(=O)N1 (some centres unmarked) [Example 427] | < 0.01 | ≥ 0.01 | – | D (D represents a DC90 value ≥50 nM) | 0.01 to 0.05 | 70 to 80 | < 70 |
| CN(C1CCN(c2ccc3c(c2)C(=O)N(C2CCC(=O)NC2=O)C3=O)CC1)[C@H]1CC[C@H](N2Cc3cc(NC(=O)c4cnn5cccnc45)c(N4CCN(CC(F)F)CC4)cc3C2=O)CC1 (some centres unmarked) [Example 371] | 0.01 to 0.05 | < 0.001 | ≥ 90 | B (B represents a DC90 value ≥10.0 nM and <25.0 nM) | 0.01 to 0.05 | 70 to 80 | ≥ 90 |
| O=C1CCC(N2C(=O)c3ccc(O[C@H]4C[C@H](N[C@H]5CC[C@H](n6cc7cc(NC(=O)c8cnn9cccnc89)c(OCC8CC8)cc7n6)CC5)C4)cc3C2=O)C(=O)N1 (some centres unmarked) [Example 374] | 0.01 to 0.05 | < 0.001 | ≥ 90 | B (B represents a DC90 value ≥10.0 nM and <25.0 nM) | 0.01 to 0.05 | 70 to 80 | ≥ 90 |
| O=C1CCC(N2Cc3cc(N4CCC(O)(CN5CCC(n6cc7cc(NC(=O)c8cnn9cccnc89)c(OCC8CC8)cc7n6)CC5)CC4)ccc3C2=O)C(=O)N1 (centres unmarked) [Example 258] | < 0.01 | < 0.001 | 80 to 90 | A (A represents a DC90 value <10.0 nM) | 0.01 to 0.05 | 70 to 80 | ≥ 90 |
| O=C1CCC(N2Cc3cc(N4CCC(CN5CCC(n6cc7cc(NC(=O)c8cnn9cccnc89)c(OCC(F)F)cc7n6)CC5)CC4)ccc3C2=O)C(=O)N1 (centres unmarked) [Example 149] | 0.01 to 0.05 | < 0.001 | 80 to 90 | A (A represents a DC90 value <10.0 nM) | < 0.01 | 70 to 80 | ≥ 90 |
| O=C1CCC(N2C(=O)c3ccc(C4CCN(C[C@H]5CC[C@H](n6cc7cc(NC(=O)c8cnn9cccnc89)c(OCC8CC8)cc7n6)CC5)CC4)cc3C2=O)C(=O)N1 (some centres unmarked) [Example 429, N-[6-(cyclopropylmethoxy)-2-[(1r,4r)-4-({4-[2-(2,6-dioxopiperidin-3-yl)-1,3-dioxo-2,3-dihydro-1H-isoindol-5-yl]piperidin-1-yl}methyl)cyclohexyl]-2H-indazol-5-yl]pyrazolo[1,5-a]pyrimidine-3-carboxamide] | < 0.01 | < 0.001 | ≥ 90 | A (A represents a DC90 value <10.0 nM) | 0.01 to 0.05 | 70 to 80 | ≥ 90 |
| C=C(CN1CCC(N2Cc3cc(NC(=O)c4cnn5cccnc45)c(OC(C)C)cc3C2=O)CC1)C1CCN(c2ccc3c(c2)C(=O)N(C2CCC(=O)NC2=O)C3=O)CC1 (centres unmarked) [Example 110] | 0.01 to 0.05 | 0.001 to 0.005 | ≥ 90 | B (B represents a DC90 value ≥10.0 nM and <25.0 nM) | 0.01 to 0.05 | 80 to 90 | ≥ 90 |
| O=C1CCC(NC(=O)c2ccc(N3CCC(CN4CCC(N5Cc6cc(NC(=O)c7cnn8cccnc78)c(OCC(F)F)cc6C5=O)CC4)CC3)cc2F)C(=O)N1 (centres unmarked) [Example 305] | 0.01 to 0.05 | 0.005 to 0.01 | 80 to 90 | C (C represents a DC90 value ≥25.0 nM and <50 nM) | 0.05 to 0.1 | < 70 | < 70 |
| CC(C)Oc1nc2c(cc1NC(=O)c1cnn3cccnc13)CN(C1CCN(CC3CCN(c4ccc(C(=O)NC5CCC(=O)NC5=O)c(F)c4)CC3)CC1)C2=O (centres unmarked) [Example 309] | 0.01 to 0.05 | 0.001 to 0.005 | ≥ 90 | B (B represents a DC90 value ≥10.0 nM and <25.0 nM) | 0.01 to 0.05 | < 70 | 80 to 90 |
| CC1(CN2CCC(n3cc4cc(NC(=O)c5cnn6cccnc56)c(OCC5CC5)cc4n3)CC2)CN(c2cc3c(cc2F)C(=O)N(C2CCC(=O)NC2=O)C3=O)C1 (centres unmarked) [Example 222] | 0.05 to 0.1 | ≥ 0.01 | 70 to 80 | D (D represents a DC90 value ≥50 nM) | 0.05 to 0.1 | 70 to 80 | ≥ 90 |
| CC(C)Oc1cc2c(cc1NC(=O)c1cnn3cccnc13)CN(C1CCN(CC3(F)CN(c4ccc5c(c4)C(=O)N(C4CCC(=O)NC4=O)C5)C3)CC1)C2=O (centres unmarked) [Example 106] | ≥ 0.1 | 0.001 to 0.005 | ≥ 90 | A (A represents a DC90 value <10.0 nM) | 0.01 to 0.05 | 80 to 90 | ≥ 90 |

Now from value to compound, other results behind:

| IC50 (IL6 [1]) [µM] | DC50 (IRAK-4) [µM] | Dmax (IRAK-4) [%] | PBMC DC90 (IRAK-4) | IC50 (IL6 [2]) [µM] | SMILES | Dmax (IL6 [1]) [%] | Dmax (IL6 [2]) [%] |
| --- | --- | --- | --- | --- | --- | --- | --- |
| 0.01 to 0.05 | 0.001 to 0.005 | ≥ 90 | A (A represents a DC90 value <10.0 nM) | 0.01 to 0.05 | CC(C)Oc1nc2c(cc1NC(=O)c1cnn3cccnc13)CN(C1CCN(CC3CCN(c4ccc5c(c4)C(=O)N(C4CCC(=O)NC4=O)C5=O)CC3)CC1)C2=O (centres unmarked) [Example 46] | 70 to 80 | ≥ 90 |
| 0.05 to 0.1 | < 0.001 | ≥ 90 | A (A represents a DC90 value <10.0 nM) | 0.01 to 0.05 | O=C1CCC(N2Cc3c(ccc(N4CCC(CN5CCC(N6Cc7cc(NC(=O)c8cnn9cccnc89)c(N8CCN(CC(F)F)CC8)cc7C6=O)CC5)CC4)c3F)C2=O)C(=O)N1 (centres unmarked) [Example 51] | < 70 | ≥ 90 |
| 0.01 to 0.05 | 0.001 to 0.005 | ≥ 90 | A (A represents a DC90 value <10.0 nM) | 0.01 to 0.05 | O=C1CCC(N2C(=O)c3ccc(N4CCC(O)(CN5CCC(n6cc7cc(NC(=O)c8cnn9cccnc89)c(OCC8CC8)cc7n6)CC5)CC4)cc3C2=O)C(=O)N1 (centres unmarked) [Example 257] | 70 to 80 | ≥ 90 |
| < 0.01 | < 0.001 | 80 to 90 | A (A represents a DC90 value <10.0 nM) | < 0.01 | CN(CCN1CCN(c2ccc3c(c2)C(=O)N(C2CCC(=O)NC2=O)C3=O)CC1)[C@H]1CC[C@H](n2cc3cc(NC(=O)c4cnn5cccnc45)c(OCC4CC4)cc3n2)CC1 (some centres unmarked) [Example 359] | 80 to 90 | ≥ 90 |
| 0.01 to 0.05 | 0.005 to 0.01 | 80 to 90 | D (D represents a DC90 value ≥50 nM) | 0.01 to 0.05 | O=C1CCC(N2C(=O)c3ccc(N4CC(F)(CN5CCC(n6cc7cc(NC(=O)c8cnn9cccnc89)c(N8CCC(N9CCC9)CC8)cc7n6)CC5)C4)cc3C2=O)C(=O)N1 (centres unmarked) [Example 243] | < 70 | ≥ 90 |
| < 0.01 | 0.001 to 0.005 | ≥ 90 | A (A represents a DC90 value <10.0 nM) | 0.01 to 0.05 | Cc1cnc2c(C(=O)Nc3cc4c(cc3OC(C)C)C(=O)N(C3CCN(CC5CCN(c6ccc7c(c6)C(=O)N(C6CCC(=O)NC6=O)C7=O)CC5)CC3)C4)cnn2c1 (centres unmarked) [Example 56] | 70 to 80 | ≥ 90 |
| < 0.01 | < 0.001 | ≥ 90 | A (A represents a DC90 value <10.0 nM) | 0.01 to 0.05 | CN([C@H]1CC[C@H](n2cc3cc(NC(=O)c4cnn5cccnc45)c(OCC4CC4)cc3n2)CC1)[C@H]1C[C@H](Oc2ccc3c(c2)C(=O)N(C2CCC(=O)NC2=O)C3=O)C1 (some centres unmarked) [Example 372] | 80 to 90 | ≥ 90 |
| 0.01 to 0.05 | 0.005 to 0.01 | 80 to 90 | D (D represents a DC90 value ≥50 nM) | < 0.01 | O=C1CCC(N2C(=O)c3ccc(N4CC(F)(CN5CCC(n6cc7cc(NC(=O)c8cnn9cccnc89)c(N8CCOCC8)cc7n6)CC5)C4)cc3C2=O)C(=O)N1 (centres unmarked) [Example 218] | 70 to 80 | ≥ 90 |
